Experimental data published in PubChem BioAssay AID330 (DTP/NCI, 2004).
“And” between values parts separate entries of the source, which are not always exact repeats. Equal entries are not always repeated. Toxic doses and inconclusive results are not listed.

Tested on: P388 leukemia ip, CD2F1 mice, survival T/C
Assay: NCI In Vivo Anticancer Drug Screen. Data for tumor model P388 Leukemia (intraperitoneal) in CD2F1 (CDF1) mice
Conditions: endpoint: median survival time, higher = longer survival
Procedure, shortened: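 Mice carrying the transplanted tumor received test compound or vehicle. Survival was recorded in each group, and the value is the treated-group measurement divided by that of the vehicle-treated control group.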

[1] = dose: 100.0 mg/kg/injection, schedule: Q04DX003 (ip), vehicle: saline
[2] = dose: 200.0 mg/kg/injection, schedule: Q04DX003 (ip), vehicle: saline
[3] = dose: 400.0 mg/kg/injection, schedule: Q04DX003 (ip), vehicle: saline
[4] = dose: 60.0 mg/kg/injection, schedule: Q01DX005 (ip), vehicle: saline
[5] = dose: 240.0 mg/kg/injection, schedule: Q01DX005 (ip), vehicle: saline
[6] = dose: 6.25 mg/kg/injection, schedule: Q01DX009 (ip), vehicle: saline
[7] = dose: 12.5 mg/kg/injection, schedule: Q01DX009 (ip), vehicle: saline
[8] = dose: 25.0 mg/kg/injection, schedule: Q01DX009 (ip), vehicle: saline
[9] = dose: 50.0 mg/kg/injection, schedule: Q01DX009 (ip), vehicle: saline

COc1ccc2ccc(=O)oc2c1C1=C(C)C(=O)OC1
T/C (dose: 2.0 mg/kg/injection, schedule: Q01DX009 (ip), vehicle: Klucel (hydroxypropylcellulose) (HPC)): 108 % of control
T/C (dose: 4.0 mg/kg/injection, schedule: Q01DX009 (ip), vehicle: Klucel (hydroxypropylcellulose) (HPC)): 100 % of control
T/C (dose: 8.0 mg/kg/injection, schedule: Q01DX009 (ip), vehicle: Klucel (hydroxypropylcellulose) (HPC)): 98 % of control
T/C (dose: 16.0 mg/kg/injection, schedule: Q01DX009 (ip), vehicle: Klucel (hydroxypropylcellulose) (HPC)): 108 % of control

COC(=O)C12CC(CCC1C13CC=CC(C)(C)C1C(=O)OC3)C(C)C2=O (stereo not drawn)
T/C (dose: 100.0 mg/kg/injection, schedule: Q04DX002 (ip), vehicle: saline with Tween-80): 92 % of control
T/C (dose: 200.0 mg/kg/injection, schedule: Q04DX002 (ip), vehicle: saline with Tween-80): 95 % of control
T/C (dose: 400.0 mg/kg/injection, schedule: Q04DX002 (ip), vehicle: saline with Tween-80): 103 % of control

CC(C)(C)OC(=O)NC1CCC2CCCCC2C1 (stereo not drawn)
T/C [1]: 100 % of control
T/C [2]: 104 % of control
T/C [3]: 100 % of control

CN(C)CC(OCCc1ccccc1)C(Cl)(Cl)Cl (stereo not drawn)
T/C (dose: 50.0 mg/kg/injection, schedule: Q01DX009 (ip), vehicle: Klucel (hydroxypropylcellulose) (HPC)): 107 % of control
T/C (dose: 100.0 mg/kg/injection, schedule: Q01DX009 (ip), vehicle: Klucel (hydroxypropylcellulose) (HPC)): 109 % of control
T/C (dose: 200.0 mg/kg/injection, schedule: Q01DX009 (ip), vehicle: Klucel (hydroxypropylcellulose) (HPC)): 109 % of control

Cc1cccc(N2C(=O)CSC2=S)c1
T/C (dose: 12.5 mg/kg/injection, schedule: Q01DX009 (ip), vehicle: saline with Tween-80): 109 % of control
T/C (dose: 25.0 mg/kg/injection, schedule: Q01DX009 (ip), vehicle: saline with Tween-80): 100 % of control
T/C (dose: 50.0 mg/kg/injection, schedule: Q01DX009 (ip), vehicle: saline with Tween-80): 103 % of control

CN(Cc1cnc2nc(N)nc(N)c2n1)c1c(Cl)cc(C(=O)NC(CCC(=O)O)C(=O)O)cc1Cl (stereo not drawn)
T/C (dose: 25.0 mg/kg/injection, schedule: Q01DX005 (ip), vehicle: suspension in saline): 158 % of control
T/C (dose: 25.0 mg/kg/injection, schedule: Q01DX005 (iv), vehicle: suspension in saline): 119 % of control
T/C (dose: 50.0 mg/kg/injection, schedule: Q01DX005 (ip), vehicle: suspension in saline): 169 % of control
T/C (dose: 100.0 mg/kg/injection, schedule: Q01DX005 (ip), vehicle: suspension in saline): 178 % of control
T/C (dose: 100.0 mg/kg/injection, schedule: Q01DX005 (iv), vehicle: suspension in saline): 165 % of control
T/C (dose: 100.0 mg/kg/injection, schedule: Q04DX003 (ip), vehicle: saline with Tween-80): 195 % of control
T/C (dose: 200.0 mg/kg/injection, schedule: Q01DX005 (ip), vehicle: suspension in saline): 190 % of control
T/C (dose: 200.0 mg/kg/injection, schedule: Q04DX003 (ip), vehicle: saline with Tween-80): 222 % of control
T/C (dose: 264.0 mg/kg/injection, schedule: Q04DX003 (ip), vehicle: saline with Tween-80): 245 % of control
T/C (dose: 400.0 mg/kg/injection, schedule: Q04DX003 (ip), vehicle: saline with Tween-80): 109 % of control and 240 % of control
T/C (dose: 600.0 mg/kg/injection, schedule: Q04DX003 (ip), vehicle: saline with Tween-80): 259 % of control

N[C@H]1c2ccsc2C(=O)[C@H]1O
T/C [4]: 153 % of control
T/C [5]: 155 % of control

CCC1CN2C(=N1)c1ccccc1-c1cc(Cl)ccc12 (stereo not drawn)
T/C (dose: 5.0 mg/kg/injection, schedule: Q01DX009 (ip), vehicle: saline): 106 % of control
T/C [6]: 101 % of control and 102 % of control and 90 % of control
T/C (dose: 10.0 mg/kg/injection, schedule: Q01DX009 (ip), vehicle: saline): 121 % of control and 124 % of control
T/C [7]: 103 % of control and 106 % of control and 97 % of control
T/C (dose: 20.0 mg/kg/injection, schedule: Q01DX009 (ip), vehicle: saline): 117 % of control
T/C [8]: 101 % of control (2×) and 108 % of control
T/C (dose: 40.0 mg/kg/injection, schedule: Q01DX009 (ip), vehicle: saline): 156 % of control
T/C [9]: 103 % of control and 123 % of control and 94 % of control

CC(Nc1ccc(Cl)cc1)S(=O)(=O)O (stereo not drawn)
T/C [9]: 106 % of control
T/C (dose: 100.0 mg/kg/injection, schedule: Q01DX009 (ip), vehicle: saline): 100 % of control
T/C (dose: 200.0 mg/kg/injection, schedule: Q01DX009 (ip), vehicle: saline): 106 % of control

CC1(C)Cc2c([nH]c3ccccc3c2=O)-c2ccccc21
T/C (dose: 50.0 mg/kg/injection, schedule: Q01DX005 (ip), vehicle: Klucel (hydroxypropylcellulose) (HPC)): 96 % of control
T/C (dose: 100.0 mg/kg/injection, schedule: Q01DX005 (ip), vehicle: Klucel (hydroxypropylcellulose) (HPC)): 100 % of control
T/C (dose: 200.0 mg/kg/injection, schedule: Q01DX005 (ip), vehicle: Klucel (hydroxypropylcellulose) (HPC)): 103 % of control

CCOC(=O)C(=C/C=C/N(C)C)C(=O)OCC
T/C (dose: 100.0 mg/kg/injection, schedule: Q01DX001 (ip), vehicle: saline): 100 % of control
T/C (dose: 200.0 mg/kg/injection, schedule: Q01DX001 (ip), vehicle: saline): 104 % of control

CCOC(=O)N1C(C)CCCC1C (stereo not drawn)
T/C [4]: 106 % of control
T/C (dose: 120.0 mg/kg/injection, schedule: Q01DX005 (ip), vehicle: saline): 105 % of control
T/C [5]: 95 % of control

C/C=C(\C)C(=O)OC1C(C)=C2C(C1OC(=O)CCCCC)C(C)(OC(C)=O)CC(OC(=O)CCC)C1(O)C2OC(=O)C1(C)O (stereo not drawn)
T/C (dose: 0.25 mg/kg/injection, schedule: Q01DX005 (ip), vehicle: Klucel (hydroxypropylcellulose) (HPC)): 105 % of control
T/C (dose: 0.5 mg/kg/injection, schedule: Q01DX005 (ip), vehicle: Klucel (hydroxypropylcellulose) (HPC)): 99 % of control and 123 % of control
T/C (dose: 1.0 mg/kg/injection, schedule: Q01DX005 (ip), vehicle: Klucel (hydroxypropylcellulose) (HPC)): 105 % of control
T/C (dose: 2.0 mg/kg/injection, schedule: Q01DX005 (ip), vehicle: Klucel (hydroxypropylcellulose) (HPC)): 106 % of control

Oc1cc(O)cc(/C=C/c2ccccc2)c1
T/C (dose: 50.0 mg/kg/injection, schedule: Q01DX005 (ip), vehicle: water): 107 % of control
T/C (dose: 100.0 mg/kg/injection, schedule: Q01DX005 (ip), vehicle: water): 101 % of control

CCCCCCCCCCCCCCCCCC[N+](C)(C)C (tested in a mixture with another compound)
T/C (dose: 1.5 mg/kg/injection, schedule: Q01DX009 (ip), vehicle: saline with Tween-80): 90 % of control
T/C (dose: 3.0 mg/kg/injection, schedule: Q01DX009 (ip), vehicle: saline with Tween-80): 113 % of control
T/C [6]: 109 % of control
T/C [7]: 113 % of control

O=C1C2C3CCC(C2C(=O)N1COP(=O)(O)O)C1C2C(=O)N(COP(=O)(O)O)C(=O)C2C31 (stereo not drawn)
T/C (dose: 40.0 mg/kg/injection, schedule: Q01DX009 (ip), vehicle: water): 103 % of control
T/C (dose: 80.0 mg/kg/injection, schedule: Q01DX009 (ip), vehicle: water): 105 % of control
T/C (dose: 160.0 mg/kg/injection, schedule: Q01DX009 (ip), vehicle: water): 105 % of control
T/C (dose: 320.0 mg/kg/injection, schedule: Q01DX009 (ip), vehicle: water): 124 % of control

COc1ccc2c(c1)CN(C)c1ccc(OC)cc1CN2C
T/C (dose: 60.0 mg/kg/injection, schedule: Q01DX005 (ip), vehicle: saline with Tween-80): 100 % of control
T/C (dose: 120.0 mg/kg/injection, schedule: Q01DX005 (ip), vehicle: saline with Tween-80): 104 % of control
T/C (dose: 240.0 mg/kg/injection, schedule: Q01DX005 (ip), vehicle: saline with Tween-80): 100 % of control

Cc1ccc(N=S(C)C)cc1
T/C (dose: 100.0 mg/kg/injection, schedule: Q04DX002 (ip), vehicle: Klucel (hydroxypropylcellulose) (HPC)): 100 % of control
T/C (dose: 200.0 mg/kg/injection, schedule: Q04DX002 (ip), vehicle: Klucel (hydroxypropylcellulose) (HPC)): 101 % of control
T/C (dose: 400.0 mg/kg/injection, schedule: Q04DX002 (ip), vehicle: Klucel (hydroxypropylcellulose) (HPC)): 113 % of control

C[CH2][Sn]([Br])([CH2]C)[c]1c(CN(C)C)cccc1CN(C)C
T/C (dose: 3.12 mg/kg/injection, schedule: Q01DX009 (ip), vehicle: saline): 99 % of control and 100 % of control
T/C [6]: 104 % of control and 106 % of control and 95 % of control
T/C [7]: 100 % of control and 95 % of control
T/C [8]: 104 % of control and 95 % of control

COc1cc(/C=C/C(=O)c2ccc(Nc3ccnc4cc(Cl)ccc34)cc2)cc(OC)c1OC
T/C (dose: 100.0 mg/kg/injection, schedule: Q01DX001 (ip), vehicle: saline with Tween-80): 102 % of control
T/C (dose: 200.0 mg/kg/injection, schedule: Q01DX001 (ip), vehicle: saline with Tween-80): 97 % of control
T/C (dose: 400.0 mg/kg/injection, schedule: Q01DX001 (ip), vehicle: saline with Tween-80): 93 % of control

O=CNNc1ccc2nnc(Cl)n2n1
T/C [1]: 101 % of control
T/C [2]: 97 % of control
T/C [3]: 93 % of control
